Results taken from US20210386792A1, “A METHOD FOR INCREASING POPULATION OF SPERMATOGONIAL STEM CELLS” (priority 2018, published 2021).

What was measured:
[1] = test system: EGR-1; test: Western blot of EGR-1 expression in LuECs; assay type: cell-based, mouse; settings: LuEC
From the text: (§1) FIG. 5. GDNF expression in TECs is regulated by CaN-NFAT signaling. a. Immunouorescence images of testis sections immunostained with the stem cell markers DDX4 and Oct4 and DAPI to stain DNA. Testes were harvested from 1-week-old or 4-week-old Euploid or Ts65Dn mice. Quantication of DDX4+ and Oct4+ cells relative to DAPI per high-powered eld (HPF) is shown on the right, ***P<0.0001. Bar=50 μm. Two-way ANOVA test. b. […] Values are mean±s.e.m. n=4. c. Quantication of GDNF levels by ELISA in conditioned media from murine TECs, LuEC and LiEC after 2 ngml-1 FGF-2 treatment in the presence or absence of CsA. Values are mean±s.e.m., n=4. d. H&E-stained cross-sections from testes of age-matched Euploid, Ts65Dn or Ts65Dn mice 5 weeks after implantation with GFP+ TECs isolated from syngeneic wild-type mice (Ts65Dn+GFP+ TECs). Red dotted line encircles mature sperm (yellow arrow) in the lumen of the seminiferous tubules. Immunouorescence images with GFP and DAPI to stain DNA of testis sections from Ts65Dn+GFP+TECs mice. e. Western blot analysis of EGR-1 protein expression in TECs and LuECs untreated or after FGF-2 treatment, expression of constitutively active NFATc1 (caNFATc1) or an empty vector control. Actin was probed as a loading control. f. Quantication of nuclear translocation of EGR1 and NFATc1 in TECs after treatment with conditioned media (CM), 2 ng ml-1 FGF-2±CsA. Values are mean±s.e.m. g. […]

[2] = test system: EGR-1; test: Western blot of EGR-1 expression in TECs; assay type: cell-based, mouse; settings: TEC
From the text: as §1

[3] = test system: NFATc1 and EGR-1; test: Nuclear translocation of NFATc1 and EGR-1 in TECs; assay type: cell-based, mouse; settings: TEC, 2 ng/ml FGF-2
[4] = test system: LiECs; test: GDNF ELISA in conditioned media from LiECs; assay type: cell-based; settings: mouse LiECs
Method: Testis, lung, or liver ECs were plated (10,000 cells ml^−1) on 12 well dishes coated with 0.1% gelatin and cultured for 24 hours. Conditioned media was harvested at 24 and 48 hours after FGF-2 (2 ng ml^−1, 20 ng ml^−1 and 50 ng ml^−1) treatment and analyzed by ELISA for GDNF (Promega GDNF Emax immunoassay system, #G7621) following the manufacturer's instruction. Statistics was analyzed using Graph Pad Prism. For quantification of Gdnf mRNA, total RNA was isolated from the cells using Direct-zol RNA MiniPrep (Zymo Research) and reverse transcribed using High Capacity cDNA Reverse Transcription Kit (Appliedbiosystems), according to the manufacturer's instructions. All gene expression levels were normalized to GAPDH mRNA levels.
FIG. 2. a. Quantication of GDNF by ELISA in conditioned media from TECs, LuECs and LiECs after treatment with the indicated concentration of FGF-2 for 2 days, n=3. Bar=100 μm. Data are presented as the mean±s.e.m. b. Representative brighteld (BF) and GFP images of 2D cultures of GFP+ SSCs co-cultured with STO cells or TECs plus exogenous GDNF and FGF-2 on days 1 and 8 after seeding. Quantication of stem cell numbers 8 days after co-culture with STO or TECs and the average colony area are shown on the right, n=3. Data are presented as the mean±s.e.m. Bar=100 μm. *P<0.05. c. […]

fibroblast growth factor-2 [FGF-2]
EGR-1 expression after FGF-2 treatment [1]: not | EGR-1 expression after FGF-2 treatment [2]: increased EGR-1 expression | nuclear localization of EGR1 [3]: increased | nuclear localization of NFATc1 [3]: increased | GDNF production in conditioned media of LiECs after FGF-2 treatment [4]: not
